In patent US9901624B2, “Methods and compositions for treating nephrogenic diabetes insipidus” (The United States of America as represented by the …, priority 2004, dated 2018):
“Also recorded” adds a separate entry of the source. Like-named read-outs stand apart in the source and are kept apart here.

What was measured:
[1] = tested on: purinergic-driven PGE2 production by IMCD; conditions: normal rats chronically infused with dDAVP 20 ng/h; cited from earlier work
V2 receptor = conditions: chronic dDAVP infusion; cited from earlier work
P2Y2 receptor [2] = conditions: chronic dDAVP infusion; cited from earlier work
P2Y2 receptor [3] = molecular target: T1, P2Y2 receptor (Rattus norvegicus, UniProt P41232); conditions: reversible fashion; cited from earlier work
T1 construct: Freshly prepared IMCD-enriched fractions were incubated at 37.degree; C. under physiological conditions; from tissue; host or cells: rat kidney inner medulla / inner medullary collecting duct (IMCD) preparations

P2Y1 [4] = molecular target: P2Y1 (Meleagris gallopavo, UniProt P49652); conditions: cDNA library source: Turkey brain; cited from earlier work
P2Y1 [5] = molecular target: P2Y1 (Gallus gallus, UniProt P34996); conditions: cDNA library source: Chick brain; cited from earlier work
P2Y1 [6] = molecular target: P2Y1 (Rattus norvegicus, UniProt P49651); conditions: cited from earlier work
P2Y11 = molecular target: T2, P2Y11 (Homo sapiens, UniProt Q96G91); conditions: cDNA library source: Human placenta; cited from earlier work
T2 sequence (Q96G91 1-374): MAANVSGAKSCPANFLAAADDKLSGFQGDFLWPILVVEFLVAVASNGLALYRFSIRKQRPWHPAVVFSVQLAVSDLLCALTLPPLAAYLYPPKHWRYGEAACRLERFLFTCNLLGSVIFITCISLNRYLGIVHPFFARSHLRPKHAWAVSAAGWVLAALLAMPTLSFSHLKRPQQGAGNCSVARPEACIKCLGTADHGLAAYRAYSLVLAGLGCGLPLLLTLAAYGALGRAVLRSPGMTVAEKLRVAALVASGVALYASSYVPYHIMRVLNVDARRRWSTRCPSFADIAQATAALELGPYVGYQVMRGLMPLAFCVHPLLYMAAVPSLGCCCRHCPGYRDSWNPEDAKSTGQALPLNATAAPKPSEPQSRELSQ

[7] = tested on: P2Y2 receptor-stimulated PGE2 release by IMCD; assay: Apyrase treatment in rats: basal and ATPγS-stimulated ex vivo PGE2 release by IMCD; set-up: species or system Sprague-Dawley rats
Protocol: (§1) It is non-toxic and safe to administer either intravenously or intraperitoneally. Two experiments were conducted. In one experiment Sprague-Dawley rats were divided into two groups (N=4 per group). One group was fed with regular rat chow, while the other was fed regular rat chow to which Lithium Chloride was added to a concentration of 40 mmol/kg wt of the food. Both groups were fed for 14 days without any other treatment. The second experiment was similar to the first one, except that potato apyrase (Sigma Chemical Co) was administered to both regular and lithium-added diet fed rats front day 7 to day 14 at a dose of 100 units/kg body wt. intraperitoneally, three times a day (˜8 hourly intervals). All rats had free access to drinking water. Twenty-four hour urine samples were collected from all rats on day 7 and 14 prior to euthanasia, and analyzed. All rats were euthanized on day 14, and IMCD suspensions were prepared. Basal and ATPγS-stimulated ex vivo PGE2 release by IMCD was determined as per the methods previously established.

[8] = Apyrase treatment day 7 to 14 in lithium-fed and regular diet rats: urine flow; assay type: in vivo, Sprague-Dawley rats
Protocol: as §1

P2Y4 = P2Y4 (Homo sapiens, UniProt P51582); conditions: cDNA library source: Human chromosome X; cited from earlier work
[9] = in vivo; cited from earlier work
[10] = control rats fed with regular diet

T1 sequence (P41232 whole entry): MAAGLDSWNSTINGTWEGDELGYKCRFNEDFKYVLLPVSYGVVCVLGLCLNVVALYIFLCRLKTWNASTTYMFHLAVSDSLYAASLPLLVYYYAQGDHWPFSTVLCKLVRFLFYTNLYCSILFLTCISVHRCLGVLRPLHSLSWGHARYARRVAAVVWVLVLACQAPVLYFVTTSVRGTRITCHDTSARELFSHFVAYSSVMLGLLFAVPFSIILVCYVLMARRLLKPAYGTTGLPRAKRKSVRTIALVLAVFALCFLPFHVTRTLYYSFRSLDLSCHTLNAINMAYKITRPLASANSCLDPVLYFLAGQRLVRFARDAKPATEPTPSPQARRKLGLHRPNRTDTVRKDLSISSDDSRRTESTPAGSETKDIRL
Chain of P2Y1 (Rattus norvegicus, UniProt P49651) (P49651 whole entry): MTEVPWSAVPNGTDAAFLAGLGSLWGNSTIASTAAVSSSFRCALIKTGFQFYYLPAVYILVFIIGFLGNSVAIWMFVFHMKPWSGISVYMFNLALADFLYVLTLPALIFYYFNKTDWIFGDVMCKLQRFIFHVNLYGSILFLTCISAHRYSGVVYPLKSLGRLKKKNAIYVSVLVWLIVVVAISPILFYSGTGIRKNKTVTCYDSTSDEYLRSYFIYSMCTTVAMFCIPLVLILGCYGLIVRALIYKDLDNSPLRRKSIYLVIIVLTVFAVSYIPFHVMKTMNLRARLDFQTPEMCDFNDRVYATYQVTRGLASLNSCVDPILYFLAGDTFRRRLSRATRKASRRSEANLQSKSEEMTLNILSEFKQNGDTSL
Chain of P2Y1 (Gallus gallus, UniProt P34996) (P34996 whole entry): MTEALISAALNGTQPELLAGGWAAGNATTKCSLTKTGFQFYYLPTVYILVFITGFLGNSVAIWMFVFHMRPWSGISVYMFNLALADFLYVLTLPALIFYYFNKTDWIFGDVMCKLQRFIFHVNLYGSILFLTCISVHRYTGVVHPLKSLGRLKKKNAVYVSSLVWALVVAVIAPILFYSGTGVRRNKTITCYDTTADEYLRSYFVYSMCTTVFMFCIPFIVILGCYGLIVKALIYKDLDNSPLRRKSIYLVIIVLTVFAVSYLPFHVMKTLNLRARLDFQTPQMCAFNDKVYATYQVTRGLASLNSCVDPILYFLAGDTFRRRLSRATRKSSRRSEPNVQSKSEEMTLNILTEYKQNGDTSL
Chain of P2Y1 (Meleagris gallopavo, UniProt P49652) (P49652 whole entry): as the sequence (P34996 whole entry) above, with T28S counted along it
Chain of P2Y4 (P51582 whole entry): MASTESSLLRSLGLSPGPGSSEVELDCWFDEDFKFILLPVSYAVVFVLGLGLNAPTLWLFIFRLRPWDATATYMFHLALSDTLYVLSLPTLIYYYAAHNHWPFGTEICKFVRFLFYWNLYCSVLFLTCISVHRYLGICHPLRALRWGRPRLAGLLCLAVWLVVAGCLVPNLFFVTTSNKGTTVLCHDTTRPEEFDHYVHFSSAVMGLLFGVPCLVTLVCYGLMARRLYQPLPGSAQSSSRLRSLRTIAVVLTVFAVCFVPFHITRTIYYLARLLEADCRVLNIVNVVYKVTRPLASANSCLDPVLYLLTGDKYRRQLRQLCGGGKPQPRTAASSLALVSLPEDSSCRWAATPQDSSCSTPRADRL

Compound: dDAVP
- purinergic-driven PGE2 production by IMCD [1]: significantly decreased
- expression of V2 receptor mRNA (V2 receptor): did not change significantly
- mRNA expression of P2Y2 receptor, down-regulated to (P2Y2 receptor [2]): 54%
- protein abundance of P2Y2 receptor, down-regulated to (P2Y2 receptor [2]): 49%

Compound: O=c1ccn([C@@H]2O[C@H](COP(=O)(O)OP(=O)(O)OP(=O)(O)O)[C@@H](O)[C@H]2O)c(=O)[nH]1 [UTP]
- AVP-stimulated osmotic water permeability (Pf) (P2Y2 receptor [3]): decreased
- Agonist activity (P2Y1 [4]): inactive)
- Agonist activity (P2Y1 [5]): inactive)
- Agonist activity (P2Y1 [6]; cDNA library source: Rat ileal myocytes): ATP (UTP inactive)
- Agonist activity (P2Y11): (UTP, UDP inactive)

Compound: apyrase
- P2Y2-mediated PGE2 release by IMCD [7, 10]: did not change
- P2Y2 receptor-stimulated PGE2 release by IMCD ([7]; lithium-fed rats, compared to apyrase-untreated lithium-fed rats): significantly decreased
- urine output [8, 10]: did not change
- urine flow induced by lithium ([8]; lithium-fed rats, apyrase day 7 to 14, 100 units/kg intraperitoneally three times a day): prevented further increase in the urine flow

Compound: Nc1ncnc2c1ncn2[C@@H]1O[C@H](COP(=O)(O)OP(=O)(O)OP(=O)(O)O)[C@@H](O)[C@H]1O [ATP]
- Agonist activity (P2Y4): UTP > UDP (ATP inactive)
- AVP-stimulated osmotic water permeability (Pf) (P2Y2 receptor [3]): decreased

Compound: COc1ccc2c(c1)c(CC(=O)O)c(C)n2C(=O)c1ccc(Cl)cc1 [indomethacin]
- polyuria of acquired NDI [9]: prevented the polyuria; also recorded: ameliorated

Compound: Nc1ncnc2c1ncn2[C@@H]1O[C@H](COP(=O)(O)OP(=O)(O)O)[C@@H](O)[C@H]1O [ADP]
- AVP-stimulated osmotic water permeability (Pf) (P2Y2 receptor [3]): not

Compound: Nc1ncnc2c1ncn2[C@@H]1O[C@H](COP(=O)(O)CP(=O)(O)OP(=O)(O)O)[C@@H](O)[C@H]1O [α,β-meATP]
- Agonist activity (P2Y1 [6]; cDNA library source: Rat insulinoma cells): (α,β-meATP inactive)

Compound: O=c1ccn([C@@H]2O[C@H](COP(=O)(O)OP(=O)(O)O)[C@@H](O)[C@H]2O)c(=O)[nH]1 [UDP]
- Agonist activity (P2Y11): (UTP, UDP inactive)
